# The supplement of paper PMC9013687
# ± gives the standard deviation of the averaged measurements.
# How the values were obtained:
# Danio rerio embryo [1] = settings: exposure time: 4 dpf
# Experimental: (§1)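 Zebrafish embryos (UFZ-OBI strain) were exposed from 2 hpf for 48 h (2 dpf) or 96 h (4 dpf) at 28 °C; spontaneous tail coiling was scored at 25 hpf. Morphological features from automated image analysis (FishInspector), heart rate and locomotor response were fitted with drc models. Quantal endpoints were dichotomised at 2.5 SD from controls and fitted with a log-logistic model; heart rate, pigmentation and STC were normalised to the replicate control mean. Betamethasone was tested as betamethasone dipropionate, diflorasone as diflorasone diacetate.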
# Danio rerio embryo [2] = assay: EC20 LMR dark; higher = less potent; settings: exposure time: 4 dpf
# Experimental: as §1
# Danio rerio embryo [3] = assay: spontaneous tail coiling frequency (coils/min/embryo); higher = more spontaneous movement; settings: 25 hpf
# Experimental: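 Spontaneous tail coilings of zebrafish embryos exposed from 2 hpf were recorded at 24-25 hpf in 1-min videos and detected by a KNIME workflow from grey-value variance. Betamethasone was tested as the dipropionate, diflorasone as the diacetate.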
# Danio rerio embryo [4] = assay: EC10 Lack of SB; higher = less potent; settings: exposure time: 4 dpf
# Experimental: as §1
# Danio rerio embryo [5] = assay: EC50 Pericard size_Increase; settings: exposure time: 4 dpf
# Experimental: as §1
# Danio rerio embryo [6] = assay: EC10 LMR dark; higher = less potent; settings: exposure time: 4 dpf
# Experimental: as §1
# Danio rerio embryo [7] = assay: EC10 Bladder size_Decrease; higher = less potent; settings: exposure time: 4 dpf
# Experimental: as §1
# Danio rerio embryo [8] = assay: EC10 Pericard size_Increase; higher = less potent; settings: exposure time: 4 dpf
# Experimental: as §1
# Danio rerio embryo [9] = assay: EC20 Lack of SB; higher = less potent; settings: exposure time: 4 dpf
# Experimental: as §1
# Danio rerio embryo [10] = assay: EC20 Bladder size_Decrease; higher = less potent; settings: exposure time: 4 dpf
# Experimental: as §1
# Danio rerio embryo [11] = assay: EC20 Pericard size_Increase; higher = less potent; settings: exposure time: 4 dpf
# Experimental: as §1
# Danio rerio embryo [12] = settings: exposure time: 4 dpf; remark: listed apart in the source
# Experimental: as §1
# Danio rerio embryo [13] = assay: EC50 Bladder size_Decrease; settings: exposure time: 4 dpf
# Experimental: as §1
# Danio rerio embryo [14] = assay: EC20 Body length_Decrease; higher = less potent
# Experimental: as §1
# Danio rerio embryo [15] = assay: EC50 Body length_Decrease
# Experimental: as §1
# Danio rerio embryo [16] = assay: EC10 Body length_Decrease; higher = less potent
# Experimental: as §1
# Danio rerio embryo [17] = tested on: Danio rerio embryo
# Experimental: as §1
# Danio rerio embryo [18] = assay: EC10 Any effect; higher = less potent
# Experimental: as §1
# Danio rerio embryo [19] = assay: EC20 Any effect; higher = less potent
# Experimental: as §1
# Danio rerio embryo [20] = assay: EC50 Yolk sac size_Increase; settings: exposure time: 4 dpf
# Experimental: as §1
# Danio rerio embryo [21] = assay: EC10 Yolk sac size_Increase; higher = less potent; settings: exposure time: 4 dpf
# Experimental: as §1
# Danio rerio embryo [22] = assay: EC20 STC decrease; higher = less potent; settings: exposure time: 25 h
# Experimental: as §1
# Danio rerio embryo [23] = assay: EC10 STC decrease; higher = less potent; settings: exposure time: 25 h
# Experimental: as §1
# Danio rerio embryo [24] = assay: EC20 Yolk sac size_Increase; higher = less potent; settings: exposure time: 4 dpf
# Experimental: as §1
# Danio rerio embryo [25] = assay: EC20 Heart rate; higher = less potent
# Experimental: as §1
# Danio rerio embryo [26] = assay: EC10 Eye-jaw distance_Decrease; higher = less potent; settings: exposure time: 4 dpf
# Experimental: as §1
# Danio rerio embryo [27] = assay: EC10 Pigmentation increase; higher = less potent; settings: exposure time: 4 dpf
# Experimental: as §1
# Danio rerio embryo [28] = assay: EC20 Pigmentation increase; higher = less potent; settings: exposure time: 4 dpf
# Experimental: as §1
# Danio rerio embryo [29] = assay: EC20 Eye-jaw distance_Decrease; higher = less potent; settings: exposure time: 4 dpf
# Experimental: as §1
# Danio rerio embryo [30] = assay: EC50 Eye-jaw distance_Decrease; settings: exposure time: 4 dpf
# Experimental: as §1
# Danio rerio embryo [31] = assay: EC10 Heart rate; higher = less potent
# Experimental: as §1
structure (smiles),measurement,setting,value
Cc1cc2c(s1)Nc1ccccc1N=C2N1CCN(C)CC1 [Olanzapine],EC50 LMR dark,Danio rerio embryo [1],24 µM
same,EC20 LMR dark,Danio rerio embryo [2],9.63 µM
same,spontaneous tail coiling frequency,Danio rerio embryo [3]; 5.4 µM,2.35 ± 0.46
same,spontaneous tail coiling frequency,Danio rerio embryo [3]; 8.1 µM,2.37 ± 0.57
same,spontaneous tail coiling frequency,Danio rerio embryo [3]; 12.1 µM,2.38 ± 0.45
same,spontaneous tail coiling frequency,Danio rerio embryo [3]; 18.1 µM,1.89 ± 0.88
same,spontaneous tail coiling frequency,Danio rerio embryo [3]; 27.2 µM,2.465 ± 0.0071
same,spontaneous tail coiling frequency,Danio rerio embryo [3]; 32 µM,2.44 ± 0.63
same,EC10 Lack of SB,Danio rerio embryo [4],8.09 µM
same,EC50 Pericard size Increase,Danio rerio embryo [5],53.1 µM
same,EC10 LMR dark,Danio rerio embryo [6],5.65 µM
same,EC10 Bladder size Decrease,Danio rerio embryo [7],7.17 µM
same,EC10 Pericard size Increase,Danio rerio embryo [8],26.4 µM
same,EC20 Lack of SB,Danio rerio embryo [9],8.65 µM
same,EC20 Bladder size Decrease,Danio rerio embryo [10],7.84 µM
same,EC20 Pericard size Increase,Danio rerio embryo [11],34.1 µM
same,EC50 Lack of SB,Danio rerio embryo [12],9.71 µM
same,EC50 Bladder size Decrease,Danio rerio embryo [13],9.13 µM
same,EC20 Body length Decrease,Danio rerio embryo [14]; exposure time: 4 dpf,24.7 µM
same,EC50 Body length Decrease,Danio rerio embryo [15]; exposure time: 4 dpf,43.8 µM
same,EC10 Body length Decrease,Danio rerio embryo [16]; exposure time: 4 dpf,17.7 µM
CNCCC=C1c2ccccc2CCc2ccccc21 [Nortriptyline],EC50 Any effect,Danio rerio embryo [17]; exposure time: 2 dpf,50.5 µM
same,EC50 Any effect,Danio rerio embryo [17]; exposure time: 4 dpf,22.1 µM
same,EC50 STC decrease,Danio rerio embryo [17]; exposure time: 25 h,39 µM
same,EC50 LMR dark,Danio rerio embryo [1],10.3 µM
same,EC20 LMR dark,Danio rerio embryo [2],1.96 µM
same,EC10 Any effect,Danio rerio embryo [18]; exposure time: 2 dpf,30 µM
same,EC10 Any effect,Danio rerio embryo [18]; exposure time: 4 dpf,17.5 µM
same,EC20 Any effect,Danio rerio embryo [19]; exposure time: 2 dpf,36.4 µM
same,EC20 Any effect,Danio rerio embryo [19]; exposure time: 4 dpf,19.1 µM
same,EC50 Yolk sac size Increase,Danio rerio embryo [20],29.2 µM
same,spontaneous tail coiling frequency,Danio rerio embryo [3]; 0.3 µM,2.44
same,spontaneous tail coiling frequency,Danio rerio embryo [3]; 3.3 µM,2.01
same,spontaneous tail coiling frequency,Danio rerio embryo [3]; 13.2 µM,2.12 ± 0.15
same,spontaneous tail coiling frequency,Danio rerio embryo [3]; 16.9 µM,1.32
same,spontaneous tail coiling frequency,Danio rerio embryo [3]; 19.8 µM,2.06
same,spontaneous tail coiling frequency,Danio rerio embryo [3]; 29.6 µM,1.39 ± 0.13
same,spontaneous tail coiling frequency,Danio rerio embryo [3]; 33.9 µM,1.27
same,spontaneous tail coiling frequency,Danio rerio embryo [3]; 44.5 µM,1.1
same,spontaneous tail coiling frequency,Danio rerio embryo [3]; 66.7 µM,1.79 ± 0.47
same,spontaneous tail coiling frequency,Danio rerio embryo [3]; 67.8 µM,1.17
same,spontaneous tail coiling frequency,Danio rerio embryo [3]; 100 µM,0.43
same,spontaneous tail coiling frequency,Danio rerio embryo [3]; 100.1 µM,1.13
same,spontaneous tail coiling frequency,Danio rerio embryo [3]; 133.4 µM,0.28
same,spontaneous tail coiling frequency,Danio rerio embryo [3]; 135.6 µM,0
same,EC10 Lack of SB,Danio rerio embryo [4],4.59 µM
same,EC10 Yolk sac size Increase,Danio rerio embryo [21],14.5 µM
same,EC20 STC decrease,Danio rerio embryo [22],8.4 µM
same,EC50 Pericard size Increase,Danio rerio embryo [5],20.4 µM
same,EC10 LMR dark,Danio rerio embryo [6],0.745 µM
same,EC10 Bladder size Decrease,Danio rerio embryo [7],4.59 µM
same,EC10 Pericard size Increase,Danio rerio embryo [8],16.5 µM
same,EC20 Lack of SB,Danio rerio embryo [9],4.76 µM
same,EC20 Bladder size Decrease,Danio rerio embryo [10],4.76 µM
same,EC20 Pericard size Increase,Danio rerio embryo [11],17.8 µM
same,EC50 Lack of SB,Danio rerio embryo [12],5.07 µM
same,EC50 Bladder size Decrease,Danio rerio embryo [13],5.07 µM
same,EC10 STC decrease,Danio rerio embryo [23],3.44 µM
same,EC20 Yolk sac size Increase,Danio rerio embryo [24],18.7 µM
same,EC20 Heart rate,Danio rerio embryo [25]; exposure time: 2 dpf,79.7 µM
same,EC20 Heart rate,Danio rerio embryo [25]; exposure time: 4 dpf,19.3 µM
same,EC10 Eye-jaw distance Decrease,Danio rerio embryo [26],16.6 µM
same,EC10 Pigmentation increase,Danio rerio embryo [27],0.889 µM
same,EC20 Pigmentation increase,Danio rerio embryo [28],1.83 µM
same,EC20 Eye-jaw distance Decrease,Danio rerio embryo [29],18.3 µM
same,EC50 Eye-jaw distance Decrease,Danio rerio embryo [30],21.5 µM
same,EC20 Body length Decrease,Danio rerio embryo [14]; exposure time: 2 dpf,36.3 µM
same,EC50 Body length Decrease,Danio rerio embryo [15]; exposure time: 2 dpf,40.6 µM
same,EC10 Heart rate,Danio rerio embryo [31]; exposure time: 2 dpf,39.8 µM
same,EC10 Heart rate,Danio rerio embryo [31]; exposure time: 4 dpf,9.66 µM
same,EC10 Body length Decrease,Danio rerio embryo [16]; exposure time: 2 dpf,34 µM
